Measured values as given in patent US20080318876A1, “Use of Ginsenosides in the Treatment of Aids” (priority 2004, published 2008).
Read-outs that look alike come from different tables or passages of the source. Blank lines part the entries; values can stand above or below the compound they belong to.

Columns and labels:
HIV-1 in Hela-CD4 cells = assay: Combination medication JHR and AZT (MAGI test); format: cell-based
Method: Method: For the experiment, the MAGI test method was adopted (the same as above).
(A) Single-agent medication: five doses of AZT were used in amount of from 1 μM to 3.9 nM, and were designated AZT1-5, five doses of JHR were designated in amount of 400 ug/ml to 1.56 ug/ml, and IC50 were obtained respectively.
Half dosage of AZT was combined with half dosage of JHR-1 as one sample. AZT1 was combined respectively with any of JHR1-JHR5; Each of AZT2, AZT3, AZT4, AZT5 was respectively combined with any of […]. So a total of 25 concentration combinations could be used. Each concentration was set in duplicate wells (2 wells). Additional group was taken as cell and virus controls.
(C) Comparing each drug combination with the virus group to have the inhibition rate. The inhibition rate of each drug combination was compared with the sole AZT IC50 to obtain the difference of functions each other.

[1] = system: HIV-1 (single-life-cycle reporter HIV) in Hela-CD4-LTR-gal cells; assay: Inhibition of HIV-1 replication in HeLa-CD4 cells (MAGI test); format: cell-based; settings: for inhibition at 200 µg/mL: Human immunodeficiency virus 1, MAGI, read-out: Inhibition Rate (0.2 mg/ml)
Method: Three types of cells (such as MT4, Hela-CD4, PBMC) were infected respectively with HIV-1 virus for observation of the inhibiting effects of ginseng composition (JHR) prepared in Example 1 upon the HIV-1 replication.
Virus: Single-life-cycle reporter HIV was acquired by transfection with HIV plasmids.
Method: Hela-CD4-LTR-gal cell was inoculated into a 24-well plate at 0.4×10^5/well and cultured for 24 hours and let the cells absorb and adhere to the wall. On the second day, the supernatants were sucked away from the wells and 100 μl drug (drug control) or drug (drug solutions with different concentrations) and HIV-1 or culture medium (Mock) were added. After 2 hours, 200 μl of identical drug solutions or culture medium was added into each well for culturing at 37° C. in a CO2 incubator for 48 hours and detecting by the following method.
Fixation: The supernatants were sucked away from each well and adding the fixative solution (1 ml), and then by staining with K4[Fe(CN)6].3H2O, K3[Fe(CN)6] and X-gel.
Counting: For the blue cell counts (BCC) within each well, the following formula is used to calculate the IR and then IC50.
The same method as that in example 1 is applied, except that the drug added into the wells is Ginsenoside monomer, and the concentration thereof is listed in table 3.

gp120 protein = target: T1, gp120 protein (Human immunodeficiency virus type 1 group M subtype B, UniProt P03375); format: binding; settings: BIACORE chip, genetically recombined gp120
T1 construct: The genetically recombined gp41, gp120 were placed on the chip of BIACORE analyzer

gp41 protein = gp41 protein (Human immunodeficiency virus type 1 group M subtype B, UniProt P03375); assay: BIACORE binding to gp41 protein; settings: BIACORE chip, genetically recombined gp41; conjugation to gp41 stronger than to gp120
Description: The genetically recombined gp41, gp120 were placed on the chip of BIACORE analyzer, respectively, after adding a certain concentration of Rb3 in sufficient amount, the instrument could detect whether or not there was a binding.

[2] = system: HIV single life cycle model; assay: Viral life cycle stage targeted: dosing at different times post-infection (single life cycle model, MAGI or Luciferase); format: cell-based

EC50 (HIV-1 in Hela-CD4 cells; AZT alone or AZT combined with JHR dose 1-5, MAGI test, read-out: ED50 (the source's name)): 46 nM | IC50 (HIV-1 in Hela-CD4 cells; AZT alone, read-out: IC50 of AZT alone): 46 nM | IC50 (HIV-1 in Hela-CD4 cells; combined with the first dose of JHR, read-out: IC50 of AZT after combining with the first dose of JHR): 5.8 nM
Compound: Cc1cn([C@H]2C[C@H](N=[N+]=[N-])[C@@H](CO)O2)c(=O)[nH]c1=O [AZT]

Compound: CC(C)=CCC[C@](C)(OC1OC(COC2OC(CO)C(O)C(O)C2O)C(O)C(O)C1O)[C@H]1CC[C@]2(C)[C@@H]1[C@H](O)C[C@@H]1[C@@]3(C)CC[C@H](OC4OC(CO)C(O)C(O)C4OC4OC(CO)C(O)C(O)C4O)C(C)(C)[C@@H]3CC[C@]12C (stereo partly shown) [Rb1]
inhibition at 200 µg/mL [1]: 41.9%

Compound: CC(C)=CCC[C@](C)(OC1OC(COC2OCC(O)C(O)C2O)C(O)C(O)C1O)[C@H]1CC[C@]2(C)[C@@H]1[C@H](O)C[C@@H]1[C@@]3(C)CC[C@H](OC4OC(CO)C(O)C(O)C4OC4OC(CO)C(O)C(O)C4O)C(C)(C)[C@@H]3CC[C@]12C (stereo partly shown) [Rb2]
inhibition at 200 µg/mL [1]: 42.9%

Compound: CC(C)=CCC[C@](C)(O[C@@H]1O[C@H](CO[C@@H]2OC[C@@H](O)[C@H](O)[C@H]2O)[C@@H](O)[C@H](O)[C@H]1O)[C@H]1CC[C@]2(C)[C@@H]1[C@H](O)C[C@@H]1[C@@]3(C)CC[C@H](O[C@@H]4O[C@H](CO)[C@@H](O)[C@H](O)[C@H]4O[C@@H]4O[C@H](CO)[C@@H](O)[C@H](O)[C@H]4O)C(C)(C)[C@@H]3CC[C@]12C [Rb3]
binding to gp120 protein (gp120 protein): can bind | Inhibition Rate (0.2 mg/ml) ([1]; Hela-CD4 cell strain, 0.2 mg/ml): 70.68% | Inhibition Rate (0.4 mg/ml) ([1]; Hela-CD4 cell strain, 0.4 mg/ml): 97.9% | binding to gp41 protein (gp41 protein): can bind | Inhibition rate (%) ([2]; dosing 2 hours post-infection): 83.98% | Inhibition rate (%) ([2]; dosing 10 hours post-infection): 0% | Inhibition rate (%) ([2]; dosing 29 hours post-infection): 0%

Compound: CC(C)=CCC[C@](C)(OC1OC(COC2OC(CO)C(O)C2O)C(O)C(O)C1O)[C@H]1CC[C@]2(C)[C@@H]1[C@H](O)C[C@@H]1[C@@]3(C)CC[C@H](OC4OC(CO)C(O)C(O)C4OC4OC(CO)C(O)C(O)C4O)C(C)(C)[C@@H]3CC[C@]12C (stereo partly shown) [Rc]
inhibition at 200 µg/mL [1]: 60.7%
